Measured values: ChEMBL document CHEMBL5154787 (J Med Chem, 2022)
pIC50, pKi: −log10 of the molar value.

Experiments:
Cytochrome P450 3A4 = Cytochrome P450 3A4 (Homo sapiens, UniProt P08684); assay: Inhibition of CYP3A4 (unknown origin) incubated for 10 mins in presence of NADPH by LC-MS/MS analysis; type: ADME
[1] = biological target: AP2-associated protein kinase 1 (Mus musculus, UniProt Q3UHJ0); assay: Displacement of 3H-LP-927443 from AAK1 in C57BL6 mouse brain homogenate assessed as inhibition constant incubated for 1 hr by liquid scintillation counter analysis; type: tissue-based
AP2-associated protein kinase 1 (Mus musculus, UniProt Q3UHJ0), sequence (Q3UHJ0 whole entry): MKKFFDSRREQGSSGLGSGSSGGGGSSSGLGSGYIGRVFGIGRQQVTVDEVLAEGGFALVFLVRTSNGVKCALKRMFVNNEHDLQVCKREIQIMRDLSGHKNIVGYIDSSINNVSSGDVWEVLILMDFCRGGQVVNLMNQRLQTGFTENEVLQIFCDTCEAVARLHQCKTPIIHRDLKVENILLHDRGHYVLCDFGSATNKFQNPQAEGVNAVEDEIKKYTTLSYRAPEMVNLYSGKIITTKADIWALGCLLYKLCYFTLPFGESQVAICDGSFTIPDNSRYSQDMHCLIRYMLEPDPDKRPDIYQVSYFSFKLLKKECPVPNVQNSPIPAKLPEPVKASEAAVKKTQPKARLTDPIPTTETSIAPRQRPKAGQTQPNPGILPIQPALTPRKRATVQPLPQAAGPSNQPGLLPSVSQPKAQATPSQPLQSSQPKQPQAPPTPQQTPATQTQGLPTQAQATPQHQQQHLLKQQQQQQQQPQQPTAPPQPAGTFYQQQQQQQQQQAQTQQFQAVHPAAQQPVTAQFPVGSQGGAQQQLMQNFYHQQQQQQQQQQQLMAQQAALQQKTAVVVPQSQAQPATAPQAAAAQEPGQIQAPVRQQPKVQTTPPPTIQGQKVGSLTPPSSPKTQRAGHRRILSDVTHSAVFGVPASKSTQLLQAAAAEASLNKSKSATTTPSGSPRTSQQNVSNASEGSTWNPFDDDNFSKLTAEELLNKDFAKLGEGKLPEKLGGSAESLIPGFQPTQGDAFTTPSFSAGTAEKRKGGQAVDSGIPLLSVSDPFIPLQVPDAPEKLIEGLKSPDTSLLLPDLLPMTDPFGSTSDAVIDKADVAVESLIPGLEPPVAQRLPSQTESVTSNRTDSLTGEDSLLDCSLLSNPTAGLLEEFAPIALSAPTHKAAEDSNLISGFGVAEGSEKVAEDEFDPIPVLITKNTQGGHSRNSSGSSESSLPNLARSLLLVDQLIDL

Aurora kinase C = Aurora kinase C (Homo sapiens, UniProt Q9UQB9); assay: Inhibition of AURC (unknown origin)
Aurora kinase C, sequence (Q9UQB9 whole entry): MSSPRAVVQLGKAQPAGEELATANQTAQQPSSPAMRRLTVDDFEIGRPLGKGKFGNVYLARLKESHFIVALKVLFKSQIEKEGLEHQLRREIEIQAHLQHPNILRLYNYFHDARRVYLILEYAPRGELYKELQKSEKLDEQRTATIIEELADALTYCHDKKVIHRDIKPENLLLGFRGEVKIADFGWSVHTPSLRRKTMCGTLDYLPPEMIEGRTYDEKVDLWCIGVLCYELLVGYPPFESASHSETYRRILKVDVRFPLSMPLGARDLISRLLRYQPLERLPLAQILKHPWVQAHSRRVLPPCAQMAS

[2] = biological target: Protein kinase C beta type (Homo sapiens, UniProt P05771); assay: Inhibition of PKCb2 (unknown origin)
[3] = Metabolic stability in human liver microsomes assessed as parent compound remaining at 0.5 uM incubated for 10 mins in presence of NADPH by LC-MS/MS analysis; type: ADME, Microsome; settings: read-out: Stability
[4] = biological target: Myosin light chain kinase 2, skeletal/cardiac muscle (Homo sapiens, UniProt Q9H1R3); assay: Inhibition of MYLK2 (unknown origin)
Myosin light chain kinase 2, skeletal/cardiac muscle, sequence (Q9H1R3 whole entry): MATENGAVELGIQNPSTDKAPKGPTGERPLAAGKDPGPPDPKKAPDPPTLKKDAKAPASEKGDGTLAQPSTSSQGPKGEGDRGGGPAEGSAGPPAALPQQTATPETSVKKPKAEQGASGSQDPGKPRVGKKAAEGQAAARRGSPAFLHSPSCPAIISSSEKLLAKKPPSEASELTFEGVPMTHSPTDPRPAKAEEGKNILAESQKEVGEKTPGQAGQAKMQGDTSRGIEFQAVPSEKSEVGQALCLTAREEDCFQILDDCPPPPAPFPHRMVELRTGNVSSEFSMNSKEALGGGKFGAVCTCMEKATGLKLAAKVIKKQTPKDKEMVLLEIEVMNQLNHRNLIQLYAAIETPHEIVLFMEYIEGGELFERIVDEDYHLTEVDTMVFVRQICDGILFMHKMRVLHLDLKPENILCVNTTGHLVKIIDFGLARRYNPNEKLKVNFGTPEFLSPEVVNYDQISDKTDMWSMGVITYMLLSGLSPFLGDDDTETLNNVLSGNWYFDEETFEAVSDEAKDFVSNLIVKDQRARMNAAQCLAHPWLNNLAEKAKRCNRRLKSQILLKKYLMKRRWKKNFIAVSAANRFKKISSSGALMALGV

[5] = biological target: T1, AP2-associated protein kinase 1 (Homo sapiens, UniProt Q2M2I8); assay: Inhibition of full length human AAK1 expressed in HEK293F cells assessed as suppression of AP2 phosphorylation measured after 3 hrs by Western blot analysis based cellular assay; type: cell-based
T1 sequence (Q2M2I8 whole entry): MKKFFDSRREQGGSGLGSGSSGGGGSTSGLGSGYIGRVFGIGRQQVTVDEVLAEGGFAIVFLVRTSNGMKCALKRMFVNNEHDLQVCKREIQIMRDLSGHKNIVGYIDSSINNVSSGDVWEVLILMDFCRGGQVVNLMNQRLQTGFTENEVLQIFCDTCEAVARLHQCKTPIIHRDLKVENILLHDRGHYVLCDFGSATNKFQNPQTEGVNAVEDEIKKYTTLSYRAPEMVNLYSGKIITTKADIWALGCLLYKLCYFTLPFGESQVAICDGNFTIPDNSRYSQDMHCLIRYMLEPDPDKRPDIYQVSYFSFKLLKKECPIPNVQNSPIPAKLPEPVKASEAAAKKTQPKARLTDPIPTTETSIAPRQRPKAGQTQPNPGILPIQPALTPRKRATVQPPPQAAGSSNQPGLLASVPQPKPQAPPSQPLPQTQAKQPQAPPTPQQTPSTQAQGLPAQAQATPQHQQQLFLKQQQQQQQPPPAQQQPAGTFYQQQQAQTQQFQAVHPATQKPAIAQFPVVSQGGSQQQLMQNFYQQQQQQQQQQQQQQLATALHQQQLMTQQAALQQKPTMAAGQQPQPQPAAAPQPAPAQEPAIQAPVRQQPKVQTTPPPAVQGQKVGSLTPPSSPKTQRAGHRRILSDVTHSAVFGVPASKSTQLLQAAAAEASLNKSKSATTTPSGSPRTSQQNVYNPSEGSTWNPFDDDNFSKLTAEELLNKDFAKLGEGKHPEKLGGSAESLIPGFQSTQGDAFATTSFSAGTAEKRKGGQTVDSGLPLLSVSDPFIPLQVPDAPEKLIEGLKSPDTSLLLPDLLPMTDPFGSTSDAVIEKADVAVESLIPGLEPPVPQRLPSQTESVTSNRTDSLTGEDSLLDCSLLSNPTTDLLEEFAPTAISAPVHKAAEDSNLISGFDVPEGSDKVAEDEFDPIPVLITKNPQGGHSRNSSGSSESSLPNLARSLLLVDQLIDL

[6] = Metabolic stability in rat liver microsomes assessed as parent compound remaining at 0.5 uM incubated for 10 mins in presence of NADPH by LC-MS/MS analysis; type: ADME, Microsome; settings: read-out: Stability
[7] = Cardiotoxicity in aortic ring (unknown origin) assessed as relaxation of phenylephrine induced aortic ring contraction at 10 uM incubated for 1 hr; type: toxicity, tissue-based, Aorta; design: scale not given: the % may be the effect or the level left; settings: human
[8] = Metabolic stability in mouse liver microsomes assessed as parent compound remaining at 0.5 uM incubated for 10 mins in presence of NADPH by LC-MS/MS analysis; type: ADME, Microsome; settings: liver microsomes, read-out: Stability
[9] = biological target: MAP kinase-interacting serine/threonine-protein kinase 1 (Homo sapiens, UniProt Q9BUB5); assay: Inhibition of MNK1 (unknown origin)
MAP kinase-interacting serine/threonine-protein kinase 1, sequence (Q9BUB5 whole entry): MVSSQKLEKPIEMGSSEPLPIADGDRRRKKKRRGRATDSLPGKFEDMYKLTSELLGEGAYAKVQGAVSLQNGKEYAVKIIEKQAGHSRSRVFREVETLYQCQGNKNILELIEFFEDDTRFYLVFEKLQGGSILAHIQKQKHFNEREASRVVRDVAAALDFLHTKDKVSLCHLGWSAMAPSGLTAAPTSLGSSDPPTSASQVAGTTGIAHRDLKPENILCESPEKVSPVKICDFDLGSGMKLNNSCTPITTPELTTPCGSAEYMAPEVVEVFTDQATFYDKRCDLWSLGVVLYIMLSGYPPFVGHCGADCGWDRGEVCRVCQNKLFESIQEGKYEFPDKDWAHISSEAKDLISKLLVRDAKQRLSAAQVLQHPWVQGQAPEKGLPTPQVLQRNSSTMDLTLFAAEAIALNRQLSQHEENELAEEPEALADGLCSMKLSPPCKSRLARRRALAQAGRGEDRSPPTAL

[10] = biological target: T1, AP2-associated protein kinase 1; assay: Inhibition of bacterially expressed GST-Xa-tagged human AAK1 using 5-FAM-labelled Aha-KEEQSQITSQVTGQIGWR-NH2 peptide as substrate incubated for 3 hrs in presence of ATP by electrophoretic analysis
[11] = biological target: BMP-2-inducible protein kinase (Homo sapiens, UniProt Q9NSY1); assay: Inhibition of BIKE (unknown origin)
BMP-2-inducible protein kinase, sequence (Q9NSY1 whole entry): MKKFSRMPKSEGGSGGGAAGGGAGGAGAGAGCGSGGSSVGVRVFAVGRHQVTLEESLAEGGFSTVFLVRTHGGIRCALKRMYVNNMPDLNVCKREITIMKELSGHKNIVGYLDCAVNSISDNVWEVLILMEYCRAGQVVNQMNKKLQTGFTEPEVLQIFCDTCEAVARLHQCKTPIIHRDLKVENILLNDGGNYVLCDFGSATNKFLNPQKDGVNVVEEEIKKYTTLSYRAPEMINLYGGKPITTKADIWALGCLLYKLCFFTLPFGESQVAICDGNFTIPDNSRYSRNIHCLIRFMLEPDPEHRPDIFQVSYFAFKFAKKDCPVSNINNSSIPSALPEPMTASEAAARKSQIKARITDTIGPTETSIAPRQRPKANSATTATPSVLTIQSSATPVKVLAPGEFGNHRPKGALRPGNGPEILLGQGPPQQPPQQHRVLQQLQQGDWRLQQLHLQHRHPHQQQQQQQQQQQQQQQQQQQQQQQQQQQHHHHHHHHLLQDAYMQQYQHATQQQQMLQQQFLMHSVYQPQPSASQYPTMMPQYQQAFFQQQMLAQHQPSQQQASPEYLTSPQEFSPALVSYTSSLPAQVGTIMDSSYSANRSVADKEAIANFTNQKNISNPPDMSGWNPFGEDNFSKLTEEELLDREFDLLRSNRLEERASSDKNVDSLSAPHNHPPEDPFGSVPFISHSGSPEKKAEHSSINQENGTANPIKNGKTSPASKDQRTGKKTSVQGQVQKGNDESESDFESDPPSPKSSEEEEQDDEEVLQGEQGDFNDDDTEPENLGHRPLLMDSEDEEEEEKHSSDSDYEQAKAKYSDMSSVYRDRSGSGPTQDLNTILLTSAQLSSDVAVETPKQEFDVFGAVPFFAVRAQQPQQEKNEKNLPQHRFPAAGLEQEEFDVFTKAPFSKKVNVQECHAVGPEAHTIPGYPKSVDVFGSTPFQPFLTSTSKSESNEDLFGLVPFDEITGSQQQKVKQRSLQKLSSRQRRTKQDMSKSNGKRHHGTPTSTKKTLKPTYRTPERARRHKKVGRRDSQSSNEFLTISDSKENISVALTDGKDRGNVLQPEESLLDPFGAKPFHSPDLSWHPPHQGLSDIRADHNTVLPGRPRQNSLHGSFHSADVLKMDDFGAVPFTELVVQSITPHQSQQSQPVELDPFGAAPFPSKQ

[12] = biological target: Citron Rho-interacting kinase (Homo sapiens, UniProt O14578); assay: Inhibition of CRIK (unknown origin)
[13] = Inhibition of IGFR (unknown origin); design: species or system Homo sapiens

Cytochrome P450 3A4, sequence (P08684 whole entry): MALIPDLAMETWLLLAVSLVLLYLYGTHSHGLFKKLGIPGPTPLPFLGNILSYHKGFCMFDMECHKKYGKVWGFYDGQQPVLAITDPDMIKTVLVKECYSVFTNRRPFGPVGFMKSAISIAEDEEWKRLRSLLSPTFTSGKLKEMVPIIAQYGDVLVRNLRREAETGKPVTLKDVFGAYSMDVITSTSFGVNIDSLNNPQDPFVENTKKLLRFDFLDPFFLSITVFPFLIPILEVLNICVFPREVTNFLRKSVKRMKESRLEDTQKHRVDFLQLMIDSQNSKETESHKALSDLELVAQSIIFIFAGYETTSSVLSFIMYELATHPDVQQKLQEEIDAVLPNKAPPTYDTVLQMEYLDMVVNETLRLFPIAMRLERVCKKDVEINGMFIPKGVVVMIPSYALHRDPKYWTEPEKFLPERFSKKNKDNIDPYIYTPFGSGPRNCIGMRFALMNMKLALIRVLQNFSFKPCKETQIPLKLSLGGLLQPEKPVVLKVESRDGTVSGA

pIC50 (Cytochrome P450 3A4) | pKi [1] | pIC50 (Aurora kinase C) | pIC50 [2] | remaining at 10 min, 0.5 µM [3] [%] | pIC50 [4] | pIC50 [5] | remaining at 10 min, 0.5 µM [6] [%] | remaining at 10 min, 0.5 µM [8] [%] | pIC50 [9] | pIC50 [10] | pIC50 [11] | pIC50 [12] | pIC50 [13] | SMILES | Activity [7] [%]
< 4.70 | 9.74 | 6.27 | 5.80 | 84 | 6.46 | 9.05 | 81 | 76 | 6.60 | 9.30 | 6.74 | 6.12 |  | Cc1cc(-c2cc(C(F)F)c(OC[C@@](C)(N)CC(C)C)cn2)ccn1 | 85
< 4.70 |  |  |  | 92 |  | 8.57 | 93 | 93 | 6.31 | 9.10 | 6.59 |  | 5.77 | CC(C)C[C@](C)(N)COc1cnc(-c2ccnc(Cl)c2)cc1C(F)F | 81
